Here are results for 18 compounds from ChEMBL document CHEMBL5236544, “Furazans in Medicinal Chemistry” (J Med Chem, 2021).

The target in one data set is Histamine H2 receptor (Homo sapiens, UniProt P25021). As to the kind of experiment: Antagonist activity at histamine H2 receptor (unknown origin) assessed as inhibition constant.
The next data set deals with Jurkat. As to the kind of experiment: Antiproliferative activity against human Jurkat cells assessed as reduction in cell viability measured after 48 hrs by MTT assay. The class given is functional, cell-based.
The next data set has as its system K562. The experiment in a line: Antiproliferative activity against human K562 cells assessed as reduction in cell viability measured after 48 hrs by MTT assay. The following applies: K562, 48 h. The class given is functional, cell-based.
The next data set has as its system HEL. As to the kind of experiment: Antiproliferative activity against human HEL cells assessed as reduction in cell viability measured after 48 hrs by MTT assay. The class given is functional, cell-based.
Data set [1] in a line: Half life in mouse. The following applies: in vivo. The class given is ADME, organism-based.
A further data set deals with HCT-116. As to the kind of experiment: Antiproliferative activity against human HCT-116 cells assessed as reduction in cell viability by MTT assay. The class given is functional, cell-based.
Another data set concerns MDR1. The experiment in a line: Efflux ratio of permeability in dog MDCK-MDR1 cells. The class given is ADME, cell-based, Canis lupus familiaris.
A short description of data set [2]: Anti-inflammatory activity against human PBMCs assessed as reduction in LPS-induced TNF-alpha release by ELISA analysis. The note with it: PBMC. The class given is functional, cell-based.
Data set [3] concerns the target 3',5'-cyclic-AMP phosphodiesterase 4D (Homo sapiens, UniProt Q08499). As to the kind of experiment: Inhibition of human recombinant PDE4D.
The species named for another data set is Mus musculus. The experiment in a line: Anti-inflammatory activity in LPS-induced inflammatory mouse model assessed as reduction in neutrophil influx. The class given is functional.
The species entered for data set [4] is Rattus norvegicus. The experiment in a line: Anti-inflammatory activity against ovalbumin induced lung inflammatory rat model assessed as reduction in eosinophil influx. The class given is functional.
The nature of data set [5]: Inhibition of ROMK (unknown origin). On the set-up: species or system Homo sapiens.
The target in data set [6] is T1, Amyloid-beta precursor protein (Homo sapiens, UniProt P05067). As to the kind of experiment: Inhibition of amyloid beta (unknown origin) aggregation at 5 uM relative to control.
Data set [7] in a line: Half life in mouse at 10 mg/kg, ip. The class given is ADME, organism-based. The following applies: in vivo.
Data set [8] has as its system Plasmodium falciparum. As to the kind of experiment: Antimalarial activity against Plasmodium falciparum assessed as parasitic reduction at 100 mg/kg relative to control. The class given is functional. On the set-up: scale not given: the % may be the effect or the level left.
Data set [9] is described as follows: Cmax in mouse at 100 mg/kg, po. The class given is ADME, organism-based. Details: dose 100 mg/kg, route po. The following applies: in vivo.
Data set [10] in a line: Half life in mouse at 10 mg/kg, po. The class given is ADME, organism-based. The following applies: in vivo.
Data set [11] is described as follows: Inhibition of human recombinant LDH.
The subject of data set [12] is Plasmodium falciparum. As to the kind of experiment: Antimalarial activity against Plasmodium falciparum assessed as parasitic reduction at 10 mg/kg of chloroquine relative to control. The class given is functional. On the set-up: scale not given: the % may be the effect or the level left.
Data set [13] concerns Plasmodium falciparum. As to the kind of experiment: Antimalarial activity against drug sensitive Plasmodium falciparum 3D7. The class given is functional, organism-based.
Data set [14] in a line: Binding affinity to Plasmodium falciparum LDH assessed as inhibitory constant.
A further data set deals with Lactate dehydrogenase (Plasmodium falciparum, UniProt Q0PJ46). As to the kind of experiment: Inhibition of recombinant Plasmodium falciparum LDH.
Data set [15] can be described thus: Cmax in mouse at 100 mg/kg, ip. The class given is ADME, organism-based. Details: dose 100 mg/kg, route ip. The note with it: in vivo.
The target of data set [16] is T1, Amyloid-beta precursor protein. As to the kind of experiment: Inhibition of amyloid beta 42 in human HEK293 cells. The class given is cell-based.
The target of the next data set is Caspase-8 (Homo sapiens, UniProt Q14790). As to the kind of experiment: Inhibition of caspase-8 (unknown origin).
The next data set deals with Caspase-1 (Homo sapiens, UniProt P29466). As to the kind of experiment: Inhibition of caspase-1 (unknown origin).
Data set [17] is described as follows: Half life in Malonate induced Huntington disease rat. The class given is ADME. The following applies: in vivo.
Data set [18] is described as follows: Drug concentration in ipsilateral striatum of malonate induced huntington disease rat measured after 24 hrs by LC/MS-MS analysis. The class given is ADME, tissue-based. The note with it: read-out: Ct.
A short description of data set [19]: Drug concentration in ipsilateral striatum of malonate induced huntington disease rat measured after 6 hrs by LC/MS-MS analysis. The class given is ADME, tissue-based. The note with it: read-out: Ct.
Another data set concerns the target Caspase-3 (Homo sapiens, UniProt P42574). As to the kind of experiment: Inhibition of caspase-3 (unknown origin).
Another data set deals with NT2. As to the kind of experiment: Inhibition of camptothecin induced apoptosis in human NT2 cells incubated for 5 hrs in presence of camptothecin by ELISA method. The class given is functional, cell-based. The following applies: NT2, 5 h.
The next data set concerns the target Caspase-7 (Homo sapiens, UniProt P55210). As to the kind of experiment: Inhibition of caspase-7 (unknown origin).
Data set [20] in a line: Cmax in Malonate induced Huntington disease […] model at 1.5 nmol administered intra striatal measured for 1 hr by LC/MS-MS analysis. The class given is ADME. Details: time 1 hrs, dose 1.5 nmol. The following applies: in vivo.
Data set [21] in a line: Inhibition of HIF (unknown origin). On the set-up: species or system Homo sapiens.
Data set [22] in a line: Binding affinity to human wild type HIF2alpha assessed as dissociation constant by calorimetry assay.
The next data set can be described thus: physchem. The following applies: octanol/water.
The subject of data set [23] is Rattus norvegicus. The experiment in a line: Antihypertensive activity in spontaneously hypertensive rat model assessed as change in heart rate at 1 mmol/Kg, po measured after 10 hrs. The class given is functional.
Data set [24] relates to Rattus norvegicus. The experiment in a line: Antihypertensive activity in spontaneously hypertensive rat model assessed as change in heart rate at 10 mg/Kg, po measured after 6 hrs. The class given is functional.
Data set [25] concerns Rattus norvegicus. As to the kind of experiment: Antihypertensive activity in spontaneously hypertensive rat model assessed as change in blood pressure at 1 mg/kg, po measured after 10 hrs. The class given is functional.
The subject of data set [26] is Rattus norvegicus. The experiment in a line: Antihypertensive activity in spontaneously hypertensive rat model assessed as change in heart rate at 1 umol/kg, po measured after 3 hrs. The class given is functional.
In data set [27] the test system is Rattus norvegicus. The experiment in a line: Antihypertensive activity in spontaneously hypertensive rat model assessed as change in blood pressure at 1 mg/kg, po measured after 3 hrs. The class given is functional.
Data set [28] can be described thus: Inhibition of recombinant MAPK p38 (unknown origin) assessed as inhibition of MEF2A phosphorylation incubated for 5 mins by SDS-PAGE method. On the set-up: species or system Homo sapiens.
For data set [29], the target named is T1, Amyloid-beta precursor protein. As to the kind of experiment: Inhibition of amyloid beta (unknown origin) aggregation at 10 uM relative to control.

T1 sequence (P05067 whole entry): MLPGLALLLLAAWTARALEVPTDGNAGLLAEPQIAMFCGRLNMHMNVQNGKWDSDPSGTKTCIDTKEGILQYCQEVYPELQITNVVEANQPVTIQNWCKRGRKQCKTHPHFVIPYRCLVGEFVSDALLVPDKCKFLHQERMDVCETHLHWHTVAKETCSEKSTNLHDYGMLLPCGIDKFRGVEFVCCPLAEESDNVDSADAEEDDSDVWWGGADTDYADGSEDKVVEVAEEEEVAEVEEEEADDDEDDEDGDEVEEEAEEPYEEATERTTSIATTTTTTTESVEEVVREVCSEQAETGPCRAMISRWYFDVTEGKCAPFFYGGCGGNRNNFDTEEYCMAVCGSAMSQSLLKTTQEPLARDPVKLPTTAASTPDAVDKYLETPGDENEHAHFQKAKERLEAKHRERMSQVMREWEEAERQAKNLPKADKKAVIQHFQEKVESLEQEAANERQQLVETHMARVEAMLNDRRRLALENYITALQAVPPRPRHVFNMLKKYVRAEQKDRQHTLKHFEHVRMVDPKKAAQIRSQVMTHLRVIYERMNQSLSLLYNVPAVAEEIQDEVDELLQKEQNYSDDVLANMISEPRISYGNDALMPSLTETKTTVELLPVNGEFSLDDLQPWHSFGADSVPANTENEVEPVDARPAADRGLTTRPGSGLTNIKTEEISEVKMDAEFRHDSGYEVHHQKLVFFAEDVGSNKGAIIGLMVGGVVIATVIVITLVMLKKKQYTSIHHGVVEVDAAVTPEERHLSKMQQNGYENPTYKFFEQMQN
Histamine H2 receptor, sequence (P25021 whole entry): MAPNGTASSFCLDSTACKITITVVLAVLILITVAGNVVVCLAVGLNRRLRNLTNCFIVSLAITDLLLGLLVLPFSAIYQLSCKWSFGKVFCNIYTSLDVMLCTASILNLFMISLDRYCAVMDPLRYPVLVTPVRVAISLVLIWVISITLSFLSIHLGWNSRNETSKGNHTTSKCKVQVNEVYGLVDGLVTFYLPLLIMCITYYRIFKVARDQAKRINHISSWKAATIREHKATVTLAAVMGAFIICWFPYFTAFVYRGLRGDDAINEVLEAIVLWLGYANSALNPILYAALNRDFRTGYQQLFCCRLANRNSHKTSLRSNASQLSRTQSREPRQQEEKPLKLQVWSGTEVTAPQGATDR
Caspase-8, sequence (Q14790 217-374 limits assumed): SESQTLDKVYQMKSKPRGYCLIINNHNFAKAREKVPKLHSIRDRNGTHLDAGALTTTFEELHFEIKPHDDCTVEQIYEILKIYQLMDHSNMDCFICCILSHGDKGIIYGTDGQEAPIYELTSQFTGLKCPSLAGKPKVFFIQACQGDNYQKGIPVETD
Caspase-8, sequence (Q14790 385-479 limits assumed): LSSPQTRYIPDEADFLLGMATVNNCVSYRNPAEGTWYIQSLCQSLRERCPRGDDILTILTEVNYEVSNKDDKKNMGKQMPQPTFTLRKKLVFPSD
Lactate dehydrogenase, sequence (Q0PJ46 whole entry): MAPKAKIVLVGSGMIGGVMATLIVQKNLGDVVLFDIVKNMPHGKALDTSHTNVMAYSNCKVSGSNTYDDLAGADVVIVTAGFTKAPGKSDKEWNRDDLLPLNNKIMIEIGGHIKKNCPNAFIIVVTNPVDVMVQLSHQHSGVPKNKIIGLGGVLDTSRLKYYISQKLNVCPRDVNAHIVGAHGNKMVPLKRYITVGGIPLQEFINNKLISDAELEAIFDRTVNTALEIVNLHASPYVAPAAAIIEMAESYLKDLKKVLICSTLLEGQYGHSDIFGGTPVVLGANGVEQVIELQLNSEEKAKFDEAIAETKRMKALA
3',5'-cyclic-AMP phosphodiesterase 4D, sequence (Q08499 whole entry): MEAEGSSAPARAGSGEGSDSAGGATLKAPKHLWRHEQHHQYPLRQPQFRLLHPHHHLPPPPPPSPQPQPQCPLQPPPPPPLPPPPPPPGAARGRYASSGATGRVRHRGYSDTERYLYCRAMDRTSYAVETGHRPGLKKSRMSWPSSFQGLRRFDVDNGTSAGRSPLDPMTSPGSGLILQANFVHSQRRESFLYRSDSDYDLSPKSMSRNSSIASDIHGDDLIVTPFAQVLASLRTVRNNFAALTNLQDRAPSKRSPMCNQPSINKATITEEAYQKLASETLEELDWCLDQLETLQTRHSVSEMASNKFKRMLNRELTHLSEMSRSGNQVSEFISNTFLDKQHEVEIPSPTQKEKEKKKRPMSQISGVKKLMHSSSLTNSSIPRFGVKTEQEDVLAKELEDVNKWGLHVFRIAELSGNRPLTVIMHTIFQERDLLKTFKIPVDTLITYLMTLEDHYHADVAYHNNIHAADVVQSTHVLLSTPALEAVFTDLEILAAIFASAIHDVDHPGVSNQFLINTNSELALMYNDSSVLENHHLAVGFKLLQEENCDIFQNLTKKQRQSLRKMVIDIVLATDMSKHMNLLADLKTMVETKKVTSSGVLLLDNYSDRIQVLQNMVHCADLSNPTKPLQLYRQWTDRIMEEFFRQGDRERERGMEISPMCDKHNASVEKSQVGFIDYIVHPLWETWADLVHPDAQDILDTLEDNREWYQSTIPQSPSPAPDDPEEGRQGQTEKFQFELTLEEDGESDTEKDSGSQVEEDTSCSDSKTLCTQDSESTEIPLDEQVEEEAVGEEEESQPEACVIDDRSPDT
Caspase-7, sequence (P55210 24-198 limits assumed): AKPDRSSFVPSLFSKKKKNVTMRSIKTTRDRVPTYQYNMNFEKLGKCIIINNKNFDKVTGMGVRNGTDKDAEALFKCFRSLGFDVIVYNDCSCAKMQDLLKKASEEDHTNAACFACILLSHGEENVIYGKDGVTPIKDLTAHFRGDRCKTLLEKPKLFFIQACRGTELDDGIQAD
Caspase-7, sequence (P55210 207-303 limits assumed): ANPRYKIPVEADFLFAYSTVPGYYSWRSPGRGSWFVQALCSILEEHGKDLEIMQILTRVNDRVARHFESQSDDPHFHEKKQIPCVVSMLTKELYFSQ
Caspase-1, sequence (P29466 120-297 limits assumed): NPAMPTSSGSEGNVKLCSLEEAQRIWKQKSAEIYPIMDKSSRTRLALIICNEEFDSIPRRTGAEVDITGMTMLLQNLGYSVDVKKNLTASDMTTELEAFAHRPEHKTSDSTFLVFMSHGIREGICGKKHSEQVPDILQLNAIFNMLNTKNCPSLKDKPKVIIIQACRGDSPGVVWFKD
Caspase-1, sequence (P29466 317-404 limits assumed): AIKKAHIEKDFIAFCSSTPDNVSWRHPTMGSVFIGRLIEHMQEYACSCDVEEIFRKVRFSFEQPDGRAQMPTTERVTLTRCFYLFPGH
Caspase-3, sequence (P42574 29-175 limits assumed): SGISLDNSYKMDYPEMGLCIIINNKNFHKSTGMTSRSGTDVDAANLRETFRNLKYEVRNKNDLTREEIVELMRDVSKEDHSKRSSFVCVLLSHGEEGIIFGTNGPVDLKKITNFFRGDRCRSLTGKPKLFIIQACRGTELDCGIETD
Caspase-3, sequence (P42574 176-277 limits assumed): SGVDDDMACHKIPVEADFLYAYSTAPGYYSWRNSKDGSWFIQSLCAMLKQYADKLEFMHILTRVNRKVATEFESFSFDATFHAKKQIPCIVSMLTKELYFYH
Description for physchem: Lipophilicity, log P of the compound

Consider `CN(C)Cc1ccc(CSCCNc2nonc2NCCCc2ccccc2)o1`, for which, at Histamine H2 receptor, the Ki came to 2 nM.

`CC1(C)CC[C@]2(C(=O)O)CC[C@]3(C)C(=CC[C@@H]4[C@@]5(C)CC[C@H](O)C(C)(C)[C@@H]5CC[C@]43C)[C@@H]2C1` [OLEANOLIC_ACID]: the EC50 in the data set on Jurkat was above 1000 nM; with K562, above 100000 nM; in the data set on HEL it was above 1000 nM. For the same compound, in data set [1], the half-life is 0.7 h.

Regarding `O=C(Nc1nonc1-c1ccc(Cl)cc1)c1ccc(C(F)(F)F)cc1`, in the data set with HCT-116, the EC50 is 1300 nM.

For `CCCOc1cccc2c1CCCC2CCCN1CCc2cc(OC)c(OC)cc2C1` (stereo unspecified), in the data set on MDR1, the efflux ratio came out at 0.35.

`O=C(O)[C@H]1CC[C@H](c2cc3cccnc3c(-c3cccc(F)c3)n2)CC1`: the EC50 in [2] was found to be 126 nM. For the same compound, in [3], the IC50 came to 41 nM. The ED50 in the data set listed under Mus musculus amounted to 0.032 µmol/kg; in the data set filed under Rattus norvegicus [4], 0.0034 µmol/kg.

`O=C(Nc1ccc(C(F)(F)F)cc1)Nc1nonc1-c1ccc(Cl)cc1`: the EC50 with HCT-116 came out at 2500 nM.

For the compound `O=C1OCc2cc(CCN3CCN(CCc4ccc5nonc5c4)CC3)ccc21`, in data set [5], the IC50 stood at 2200 nM.

Turning to `OC(c1cccc(-c2cc(NCc3ccccc3)c3nonc3c2)c1)C(F)(F)F` (stereo unspecified), the inhibition in data set [6] stood at 57.1%.

As for `O=C(O)c1conc1O`, the half-life in [7] is 1.1 h; in data set [10], 1.6 h. Also, the Activity in the data set with Plasmodium falciparum [8] is reported as 30%; with Plasmodium falciparum [12], 100%. Moreover, the Cmax in data set [9] worked out at 153 µM; in [15], 158 µM. The IC50 in [11] worked out at 54000 nM; on Lactate dehydrogenase, 1100 nM. The compound also registered an EC50 in the data set with Plasmodium falciparum [13] of 74400 nM. Besides, the EC90 in the data set with Plasmodium falciparum [13] is above 200000 nM. Besides, the Ki in [14] was 470 nM.

As to `CC(C)CC(C(=O)O)c1cc(Cl)c(OCC2CC2)c(-c2ccc(C(F)(F)F)cc2)c1` (stereo unspecified), the response in data set [16] was half-maximal at 70 nM (EC50).

On to `CCCCCCN(C)CC(=O)C(CC(=O)O)NC(=O)[C@H](CC)n1cc(C(C)(C)C)nc(NCc2nonc2C)c1=O` (stereo partly specified), for which the IC50 amounted to 6480 nM on Caspase-8, 67 nM at Caspase-1, 6 nM at Caspase-3 and 42 nM on Caspase-7. The same compound gave a half-life in data set [17] of 3 h. Moreover, in data set [18], the concentration at 24 h worked out at 0.1 µM. Moreover, in data set [19], the concentration at 6 h turned out to be 5.1 µM. For the same compound, the EC50 with NT2 is 21 nM. In data set [20], this compound displayed a Cmax of 32.2 µM.

On to `CC1(C)CC[C@]2(C(=O)O)CC[C@]3(C)C(=CC[C@@H]4[C@@]5(C)Cc6nonc6C(C)(C)[C@@H]5CC[C@]43C)[C@@H]2C1`, for which the values for the EC50 in the data set on Jurkat, in the data set on K562 and with HEL were 290 nM, 780 nM and above 210 nM, respectively. Also, the half-life in data set [1] was 1.5 h.

In data set [21], `Fc1cc(Br)cc([C@@H]2C[C@H](c3cccc(Br)c3)n3nnnc3N2)c1` had a half-inhibitory concentration (IC50) of 43000 nM. The Kd in data set [22] was determined as 23 nM. Moreover, the logP in “physchem” was 4.4.

Turning to `COc1cc2c(cc1OC)CN(Cc1ccc(-c3ccc(O)cc3)cc1)CC2`, the efflux ratio in the data set with MDR1 came to 0.69.

Consider `CC(C)CC(C(=O)O)c1cc(Cl)c(OCC2CC2)c(-c2ccc3nonc3c2)c1` (stereo unspecified), for which, in data set [16], the EC50 was determined as 270 nM.

For the compound `CCn1c(-c2nonc2N)nc2cnc(Oc3cccc(NC(=O)c4ccc(OCCN5CCOCC5)cc4)c3)cc21` [GSK-269962A], the Activity with Rattus norvegicus [23] was 0 bpm; with Rattus norvegicus [24] it was 10 bpm; in the data set with Rattus norvegicus [25], 0 mmHg; in the data set with Rattus norvegicus [26] it was 30 bpm; in the data set with Rattus norvegicus [27], -20 mmHg.

As to `Cc1ccc(Cl)cc1Nc1cc(Cl)c2nonc2c1[N+](=O)[O-]`, in [28], the IC50 was 10000 nM.

With `OC(c1cccc(-c2cc(N3CCCC3)c3nonc3c2)c1)C(F)(F)F` (stereo unspecified), the inhibition in [29] worked out at 88.9%.
